Assay results from US20240302379A1, “METHODS FOR IDENTIFYING AND MONITORING INTERACTIONS OF PROTEIN WITH LIGAND” (Agency for Science, Technology and Research, priority 2020, published 2024).
“Also recorded” adds a separate entry of the source.

Tests used:
DHFR-HiBiT = biological target: T1, DHFR-HiBiT (Homo sapiens, UniProt P00374); experiment: UCEP-Screen in HEK293 DHFR-HiBiT reporter cells (bioluminescence); assay type: binding; conditions: 20 μM, 10 minutes
T1 construct: expressed in transfected cells; host or cells: Flp-In T-Rex HEK293
T1 sequence (P00374 1-187): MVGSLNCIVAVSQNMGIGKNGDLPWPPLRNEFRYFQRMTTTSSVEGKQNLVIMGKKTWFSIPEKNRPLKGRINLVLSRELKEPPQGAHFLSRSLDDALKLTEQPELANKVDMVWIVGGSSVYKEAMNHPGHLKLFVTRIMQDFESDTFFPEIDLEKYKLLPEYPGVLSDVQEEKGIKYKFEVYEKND
Protocol: UCEP conditions such as denaturant concentration and dilution factor should be optimized for each target before performing any HTS. Here, Flp-In T-Rex cells were used for assay development. Cells were seeded into the 96-well clear bottom white microplate in growth medium and the expression of HiBiT-tagged protein was induced with tetracycline. Cells are treated with chemical of interest for specific duration, before incubation in PBS containing different concentrations of urea. Urea was then diluted with PBS. HiBiT lytic detection buffer containing LgBiT and substrate was then added. Bioluminescence was then measured.

K562 living cells = experiment: UCEP-ID MR experiment (proteome-wide target deconvolution by quantitative LC-MS/MS); conditions: K562, 10 μM, 10 minutes
HER2-HiBIT = biological target: T2, HER2-HiBIT (Homo sapiens, UniProt P04626); experiment: UCEP in HER2-HiBIT reporter cells with 1% CHAPS (bioluminescence); assay type: binding; conditions: 3M to 5M urea
T2 construct: expressed in transfected cells; host or cells: reporter cells
T2 sequence (P04626 23-1255): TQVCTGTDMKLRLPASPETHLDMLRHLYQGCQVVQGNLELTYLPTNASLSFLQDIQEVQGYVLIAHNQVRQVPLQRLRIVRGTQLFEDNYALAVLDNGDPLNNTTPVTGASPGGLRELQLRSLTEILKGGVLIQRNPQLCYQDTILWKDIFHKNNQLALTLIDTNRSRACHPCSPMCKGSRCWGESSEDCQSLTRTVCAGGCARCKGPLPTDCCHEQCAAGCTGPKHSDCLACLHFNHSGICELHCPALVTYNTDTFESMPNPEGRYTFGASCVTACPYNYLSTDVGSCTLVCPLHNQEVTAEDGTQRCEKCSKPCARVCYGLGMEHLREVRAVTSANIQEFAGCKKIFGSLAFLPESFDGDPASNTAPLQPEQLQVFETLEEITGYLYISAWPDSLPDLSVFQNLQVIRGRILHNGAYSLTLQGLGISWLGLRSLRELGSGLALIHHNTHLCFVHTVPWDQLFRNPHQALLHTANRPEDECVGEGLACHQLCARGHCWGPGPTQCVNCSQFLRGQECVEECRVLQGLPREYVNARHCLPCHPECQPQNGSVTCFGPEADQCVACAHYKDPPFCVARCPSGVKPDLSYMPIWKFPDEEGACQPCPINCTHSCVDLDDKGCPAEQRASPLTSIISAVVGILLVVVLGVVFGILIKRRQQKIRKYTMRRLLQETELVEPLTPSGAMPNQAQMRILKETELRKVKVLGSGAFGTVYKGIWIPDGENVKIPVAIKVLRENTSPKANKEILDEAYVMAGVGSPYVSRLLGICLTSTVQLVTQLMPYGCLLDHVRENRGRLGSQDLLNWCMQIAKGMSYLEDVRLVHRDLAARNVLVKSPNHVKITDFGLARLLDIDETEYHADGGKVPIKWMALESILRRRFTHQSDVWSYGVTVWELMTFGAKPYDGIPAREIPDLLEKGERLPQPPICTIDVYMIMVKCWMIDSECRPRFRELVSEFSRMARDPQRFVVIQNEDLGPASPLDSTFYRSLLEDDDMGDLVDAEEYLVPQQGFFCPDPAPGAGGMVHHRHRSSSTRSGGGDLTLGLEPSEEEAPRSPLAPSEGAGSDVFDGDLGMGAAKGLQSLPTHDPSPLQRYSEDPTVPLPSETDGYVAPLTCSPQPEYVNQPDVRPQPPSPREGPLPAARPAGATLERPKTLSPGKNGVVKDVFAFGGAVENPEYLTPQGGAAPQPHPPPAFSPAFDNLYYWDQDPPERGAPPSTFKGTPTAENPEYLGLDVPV
Source text: In the Flp-In T-Rex system, modified pENTR1A plasmids, entry vectors, are used to clone protein of interest. pENTR1A plasmids are modified to include thirty-three nucleotide sequences of HiBiT for tagging protein of interest at either N- or C terminus. A HiBiT-tagged protein of interest is transferred to one of gateway destination vectors, pFRT/TO/DEST or pEF5/FRT/V5-DEST, via gateway LR reaction. Flp-In T-Rex HEK293 cells are transfected with the final destination vector that include HiBiT-tagged gene of interest and pOG44 vector expressing Flp recombinase. Cells are selected with Hygromycin and Blasticidin to remove untransformed cells. In the CRISPR system, the ribonucleoprotein complex including Cas9, crRNA, tracrRNA is formed in vitro. Cells are electroporated to deliver the Cas9 ribonucleoprotein complex along with a single-stranded donor oligonucleotide. Next day, cells are sorted as a single cell into a transparent 96-well tissue culture microplate and incubated until they became confluent.
UCEP conditions such as denaturant concentration and dilution factor should be optimized for each target before performing any HTS. Here, Flp-In T-Rex cells were used for assay development. Cells were seeded into the 96-well clear bottom white microplate in growth medium and the expression of HiBiT-tagged protein was induced with tetracycline. […] Bioluminescence was then measured. […]

| SMILES | DHFR-HiBiT protein stabilization upon UCEP (DHFR-HiBiT) | also measured |
| --- | --- | --- |
| CNC(=O)c1ccc(N2C(=S)N(c3ccc(C#N)c(C(F)(F)F)c3)C(=O)C2(C)C)cc1F [Enzalutamide] | did not significantly change |  |
| CN(Cc1cnc2nc(N)nc(N)c2n1)c1ccc(C(=O)N[C@@H](CCC(=O)O)C(=O)O)cc1 [MTX, methotrexate] |  | Binding targets identified by UCEP-ID (K562 living cells): DHFR |
| CN[C@@H]1C[C@H]2O[C@@](C)([C@@H]1OC)n1c3ccccc3c3c4c(c5c6ccccc6n2c5c31)C(=O)NC4 [Staurosporine] | did not significantly change |  |
| Cc1cc(Nc2ncnc3ccc(NC4=NC(C)(C)CO4)cc23)ccc1Oc1ccn2ncnc2c1 [Tucatinib] |  | Stabilization of HER2-HiBIT (fold change of bioluminescence vs control) (HER2-HiBIT): maximum stabilization of HER2 at 3M urea; also recorded: increased stability |
